Values quoted from earlier work, collected in US20190209596A1, “METHODS OF TREATING DISEASES” (Boehringer Ingelheim International GmbH, priority 2015, published 2019).

Conditions: metformin on its own, in the diabetic

## CN(C)C(=N)N=C(N)N [metformin]
  average improvement in the HbA1c value: 1.0-1.5%
